In patent publication US20140235548A1, “COMPOSITIONS AND METHODS FOR JAMM PROTEIN INHIBITION” (Cleave Biosciences, Inc., priority 2011, published 2014):
Where two headings read alike, the source gives them in different places. Where a SMILES comes first, the peptide text is derived from it. The star is where a group is joined. Cbz = O=C(OCc1ccccc1)*

Assays:
Rpn11 [1] = target: T1, Rpn11 (Homo sapiens, UniProt O00487); assay: Rpn11 fluorescence polarization assay with 26S proteasome and Ub4-peptide-Oregon Green substrate; type: biochemical
Description: As seens in FIG. 4A) the Rpn11 substrate consisted of six histidine residues followed by four ubiquitin sequences fallowed by the peptide sequence […]. The Oregon Green fluorophore was attached to the cysteine residue via maleimide chemistry. Following cleavage of the substrate by Rpn11, the product […] coupled to Oregon Green was released. The change in molecular weight of Oregon Green containing protein was detected by fluorescence polarization. The Rpn11 reaction can he inhibited with compound 1. In FIG. 4(B) progress curves for product generation by 26S proteasome (which contains Rpn11). Rpn11 cleaves the substrate immediately after the fourth ubiquitin (Ub). 5 nM Ub-Ub-Ub-Ub-peptide-oregon green substrate was incubated with 0.5 nM purified 26S proteasome for 120 min at room temperature. As labeled peptide is liberated, the fluorescence polarization diminishes. The cleavage reaction can be inhibited by the o-phenanthroline. In FIG. 4(C-E) dose-response curve for inhibition of Rpn11 by compound 1 (C), 3-hydroxy-4H-pyran-4-thione (D) or o-phenanthroline (E) were generated by adding varying doses of compound to the reaction mixture. At 120 minutes, fluorescence polarization was measured. Percent activity was calculated based on the amount of enzyme activity observed in the absence of added test agent.
An 8-point compound 001 dose titration curve was performed, by incubating Rpn11-containing 26S proteasome, Rpn11 substrate and compound (dose range 50 μM to 0.1 μM) and monitoring fluorescence polarization as per BIOEXAMPLE 4. Remaining activity as compared to DMSO control (% activity) was calculated and plotted versus compound 1 concentration and the curve was fit to a four-parameter fit model to obtain an IC50 value.

AMSH-LP = target: T2, AMSH-LP (Homo sapiens, UniProt Q96FJ0); assay: AMSH-LP assay: di-ubiquitin K63 cleavage to mono-ubiquitin (SDS-PAGE, anti-ubiquitin blot); type: biochemical; settings: AMSH-LP 50 nM, di-ubiquitin K63 1 μM, 20 hours at room temperature; read-out: approximate IC50, mono-ubiquitin product formation
T2 sequence (Q96FJ0 1-436): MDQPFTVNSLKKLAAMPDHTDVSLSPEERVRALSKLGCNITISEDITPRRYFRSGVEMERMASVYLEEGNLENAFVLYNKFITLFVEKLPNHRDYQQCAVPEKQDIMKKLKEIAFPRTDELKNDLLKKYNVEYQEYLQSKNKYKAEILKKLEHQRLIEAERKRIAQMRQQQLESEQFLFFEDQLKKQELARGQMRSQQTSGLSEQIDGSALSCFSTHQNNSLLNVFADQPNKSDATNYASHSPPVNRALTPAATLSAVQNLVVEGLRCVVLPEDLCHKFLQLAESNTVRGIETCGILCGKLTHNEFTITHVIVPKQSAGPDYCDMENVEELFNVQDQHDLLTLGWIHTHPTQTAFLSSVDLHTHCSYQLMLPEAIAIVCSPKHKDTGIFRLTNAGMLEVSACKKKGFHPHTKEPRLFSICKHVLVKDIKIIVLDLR
Description: Formation of product is dependant on the presence of AMSH-LP (lane 1).

Rpn11 [2] = target: T1, Rpn11; assay: Ub^G76V-GFP proteasome reporter degradation in HeLa cells (Rpn11 activity in cells); type: cell-based; settings: cycloheximide, 90 min at 37° C., quantitative fluorescence microscopy, read-out: IC50, level of remaining Ub^G76V-GFP
CSN5 [3] = target: T3, CSN5 (Homo sapiens, UniProt Q92905); assay: Csn5 fluorescence polarization assay: release of Nedd8OG from Cul1-Nedd8OG / SCF^Skp2-Nedd8OG by CSN; type: biochemical
CSN5 [4] = target: T3, CSN5; assay: Cell-based Csn5 assay: Cul1 neddylation in HEK-293T cells (immunoblot); set-up: endogenous in cells; host or cells: HEK-293T; settings: 30 min, increasing concentration
Description: Because cullins undergo a dynamic cycling between neddylated and unneddylated forms by the action of NAE1 and Csn5, respectively, a Csn5 inhibitor will block the removal of Nedd8 from cullin resulting in the accumulation of Nedd8-cullin. HEK-293T cells were treated with compound 001 for 30 min., washed with PBS and lysed in gel loading buffer. Clarified cell lysates (40 μg) were electrophoresed, transferred to nitrocellulose and immunoblotted with α-Cu11 or α-actin sera.

[5] = tested on: neddylated forms of Cullins 1, 2, and 4A; assay: Accumulation of neddylated Cullins 1, 2 and 4A in HEK-293T cells (immunoblot); type: cell-based, human; settings: 15 min at 37° C.
Description: Test compounds include Compound 1 (“Test Compound 1”), Compound 101 (“Test Compound 2”), and MLN4924 (“Comparison Compound”; Sulfamic acid, [(1S,2S,4R)-4-[4-[[(1S)-2,3-dihydro-1H-inden-1-yl]amino]-7H-pyrrolo[2,3-d]pyrimidin-7-yl]-2-hydroxycyclopentyl]methyl ester; CAS Reg. No. 905579-51-3). Human HEK-293T cells were treated with 100 μM compound 1, 100 μM compound 101, 3 μM MLN4924 or 1% DMSO for 15 min. at 37° C. At the end of the incubation, cells were harvested and lysed. All cell lysates were fractionated by SDS-PAGE, proteins were transferred to nitrocellulose, and Cu11, Cu12 and Cu14 was detected by immunoblotting with an antibody that recognizes human Cu11, Cu12 or Cu14. Cu11-N8: human Cu11 modified with Nedd8. Cu12-N8: human Cu12 modified with Nedd8. Cu14-N8: human Cu14 modified with Nedd8.

[6] = 0.5 nM 26S proteasome, 5 nM substrate, 120 min, room temperature (FIG. 4C-E), read-out: IC50, inhibition of Rpn11
[7] = Bioexample 16 table, read-out: RPN11 IC50
[8] = Bioexample 16 table, read-out: CSN5 IC50

SMILES | IC50 (Rpn11 [1]; [6]) [µM] | IC50 (Rpn11 [1]; [7]) [µM] | IC50 (Rpn11 [2]) [µM] | IC50 (CSN5 [3]; [8]) [µM] | other results
Oc1coccc1=S [3-hydroxy-4H-pyran-4-thione, reference compound] | 0.6 | – | – | – | –
Sc1cccc2cccnc12 [Compound 1, 8-quinolinethiol] | 3.3 | 1.1 | 0.12 | – | IC50 (AMSH-LP): ~1600 nM; IC50 (CSN5 [3]; Cop9 signalsome, 8-point titration 100 μM to 0.05 μM, four-parameter fit (FIG. 11), read-out: IC50 on Csn5): 6.5 µM; IC50 (CSN5 [3]; purified CSN, fluorescence polarization, dose escalation (FIG. 2B), read-out: IC50, CSN release of Nedd8OG from Cu11-Nedd8OG): 3.8 µM; shift of Cu11 between unneddylated and neddylated form (CSN5 [4]): shifts the Cu11 population from the undeddylated to the neddylated form; conversion of Cu11, Cu12 and Cu14 to Nedd8-modified species ([5]; 100 μM): largely modified with Nedd8
CC(C)C[C@@H](C=O)NC(=O)[C@H](CC(C)C)NC(=O)[C@H](CC(C)C)NC(=O)OCc1ccccc1 [MG132, N-(benzyloxycarbonyl)leucinylleucinylleucinal] (Cbz-Leu-Leu-Leu-aldehyde) | – | – | 0.23 | – | –
NS(=O)(=O)OC[C@@H]1C[C@@H](n2ccc3c(N[C@H]4CCc5ccccc54)ncnc32)C[C@@H]1O [MLN4924, Sulfamic acid, [(1S,2S,4R)-4-[4-[[(1S)-2,3-dihydro-1H-inden-1-yl]amino]-7H-pyrrolo[2,3-d]pyrimidin-7-yl]-2-hydroxycyclopentyl]methyl ester, reference compound] | – | – | – | – | conversion of Cu11, Cu12 and Cu14 to Nedd8-modified species ([5]; 3 μM): remain in the non-neddylated form

Now from value to compound, other results behind:

IC50 (Rpn11 [1]; [6]) [µM] | IC50 (Rpn11 [1]; [7]) [µM] | IC50 (Rpn11 [2]) [µM] | IC50 (CSN5 [3]; [8]) [µM] | SMILES | other results
– | 6.1 | – | – | Cc1ccc2cccc(S)c2n1 [Compound 3, 8-SH-2-Me-quinoline] | –
– | 1.3 | – | 7.7 | Cc1cnc2c(S)cccc2c1 [Compound 4] | –
– | 2.5 | – | 22.2 | Cc1ccnc2c(S)cccc12 [Compound 5] | –
– | 1.1 | – | 4.1 | Cc1ccc(S)c2ncccc12 [Compound 6] | –
– | 0.8 | – | – | Cc1cc(S)c2ncccc2c1 [Compound 7] | –
158 | – | 590 | – | c1cnc2c(c1)ccc1cccnc12 [o-phenanthroline, reference compound] | –
